From PubChem BioAssay AID2060605 (Molecular Pharmacology Branch, DTP, NCI, 2025)
Values belong to the compound of their own block, whether it stands above or below them.

Test system: 947758-054-R-J2-PDC spheroid growth, percent test/control
Assay: Anticancer human tumor 947758-054-R-J2-PDC patient-derived colon adenocarcinoma cell line growth inhibition [CLK]
Settings: spheroids with HUVEC and MSC; for IC50: curve of first compound; for viability, T/C: stronger effect = lower value
Outline: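 Patient-derived tumor cells grown as complex spheroids with HUVEC endothelial cells and mesenchymal stem cells, treated with drug combinations. Concentrations descend in half-log steps from near clinical Cmax, or from 10 microM if Cmax unknown.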

[1] = second compound 0.0316 µM, first compound 0.0316 µM
[2] = second compound 0.0316 µM, first compound 0.1 µM
[3] = second compound 0.0316 µM, first compound 0.316 µM
[4] = second compound 0.0316 µM, first compound 1 µM
[5] = second compound 0.0316 µM, first compound 3.16 µM
[6] = second compound 0.0316 µM, first compound 10 µM
[7] = second compound 0.1 µM, first compound 0.0316 µM
[8] = second compound 0.1 µM, first compound 0.1 µM
[9] = second compound 0.1 µM, first compound 0.316 µM
[10] = second compound 0.1 µM, first compound 1 µM
[11] = second compound 0.1 µM, first compound 3.16 µM
[12] = second compound 0.1 µM, first compound 10 µM
[13] = second compound 0.316 µM, first compound 0.0316 µM
[14] = second compound 0.316 µM, first compound 0.1 µM
[15] = second compound 0.316 µM, first compound 0.316 µM
[16] = second compound 0.316 µM, first compound 1 µM
[17] = second compound 0.316 µM, first compound 3.16 µM
[18] = second compound 0.316 µM, first compound 10 µM
[19] = second compound 1 µM, first compound 0.0316 µM
[20] = second compound 1 µM, first compound 0.1 µM
[21] = second compound 1 µM, first compound 0.316 µM
[22] = second compound 1 µM, first compound 1 µM
[23] = second compound 1 µM, first compound 3.16 µM
[24] = second compound 1 µM, first compound 10 µM
[25] = second compound 3.16 µM, first compound 0.0316 µM
[26] = second compound 3.16 µM, first compound 0.1 µM
[27] = second compound 3.16 µM, first compound 0.316 µM
[28] = second compound 3.16 µM, first compound 1 µM
[29] = second compound 3.16 µM, first compound 3.16 µM
[30] = second compound 3.16 µM, first compound 10 µM
[31] = second compound 10 µM, first compound 0.0316 µM
[32] = second compound 10 µM, first compound 0.1 µM
[33] = second compound 10 µM, first compound 0.316 µM
[34] = second compound 10 µM, first compound 1 µM
[35] = second compound 10 µM, first compound 3.16 µM
[36] = second compound 10 µM, first compound 10 µM
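Also: spheroids exposed to compounds for one week before readout.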
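For viability, T/C in this document: 100% = DMSO vehicle control wells.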

Compound: CC(CO)NC(=O)c1cc(-c2ccc(Cl)cc2)nn(-c2cnn(C)c2)c1=O (stereo not drawn) + CN1CCN(c2cc(C(=O)Nc3cc4cc(-c5cnn(C)c5)ccc4cn3)ccn2)CC1
IC50 (second compound 0.0316 µM): > 10000 nM
IC50 (second compound 0.1 µM): > 10000 nM
IC50 (second compound 0.316 µM): < 31.6 nM
IC50 (second compound 1 µM): < 31.6 nM
IC50 (second compound 3.16 µM): < 31.6 nM
IC50 (second compound 10 µM): < 31.6 nM
viability, T/C [1]: 91.8%
viability, T/C [2]: 112%
viability, T/C [3]: 105%
viability, T/C [4]: 110%
viability, T/C [5]: 126%
viability, T/C [6]: 155%
viability, T/C [7]: 184%
viability, T/C [8]: 179%
viability, T/C [9]: 175%
viability, T/C [10]: 199%
viability, T/C [11]: 182%
viability, T/C [12]: 133%
viability, T/C [13]: 5.49%
viability, T/C [14]: 6.26%
viability, T/C [15]: 5.8%
viability, T/C [16]: 5.69%
viability, T/C [17]: 4.92%
viability, T/C [18]: 2.57%
viability, T/C [19]: 0.15%
viability, T/C [20]: 0.19%
viability, T/C [21]: 0.18%
viability, T/C [22]: 0.36%
viability, T/C [23]: 0.15%
viability, T/C [24]: 0.14%
viability, T/C [25]: 0.28%
viability, T/C [26]: 0.97%
viability, T/C [27]: 0.25%
viability, T/C [28]: 0.24%
viability, T/C [29]: 0.25%
viability, T/C [30]: 0.31%
viability, T/C [31]: 0.4%
viability, T/C [32]: 0.42%
viability, T/C [33]: 0.35%
viability, T/C [34]: 0.41%
viability, T/C [35]: 0.42%
viability, T/C [36]: 0.36%

Compound: COc1ccc([C@@H](O)c2cc(-c3ncnc4cc(N5CCOCC5)ccc34)c(F)cc2Cl)nn1 + CN1CCN(c2cc(C(=O)Nc3cc4cc(-c5cnn(C)c5)ccc4cn3)ccn2)CC1
IC50 (second compound 0.0316 µM): > 10000 nM
IC50 (second compound 0.1 µM): 4240 nM
IC50 (second compound 0.316 µM): < 31.6 nM
IC50 (second compound 1 µM): < 31.6 nM
IC50 (second compound 3.16 µM): < 31.6 nM
IC50 (second compound 10 µM): < 31.6 nM
viability, T/C [1]: 126%
viability, T/C [2]: 134%
viability, T/C [3]: 157%
viability, T/C [4]: 163%
viability, T/C [5]: 165%
viability, T/C [6]: 64%
viability, T/C [7]: 119%
viability, T/C [8]: 137%
viability, T/C [9]: 111%
viability, T/C [10]: 92.1%
viability, T/C [11]: 59.8%
viability, T/C [12]: 25.2%
viability, T/C [13]: 1.95%
viability, T/C [14]: 5%
viability, T/C [15]: 1.88%
viability, T/C [16]: 2.42%
viability, T/C [17]: 2.05%
viability, T/C [18]: 1.12%
viability, T/C [19]: 0.11%
viability, T/C [20]: 1.62%
viability, T/C [21]: 0.17%
viability, T/C [22]: 0.08%
viability, T/C [23]: 1.67%
viability, T/C [24]: 0.46%
viability, T/C [25]: 0.13%
viability, T/C [26]: 1.34%
viability, T/C [27]: 0.63%
viability, T/C [28]: 0.14%
viability, T/C [29]: 0.18%
viability, T/C [30]: 0.3%
viability, T/C [31]: 0.26%
viability, T/C [32]: 0.42%
viability, T/C [33]: 0.26%
viability, T/C [34]: 0.21%
viability, T/C [35]: 0.3%
viability, T/C [36]: 0.88%

IC50 (second compound 0.0316 µM): 792 nM
IC50 (second compound 0.1 µM): 263 nM
IC50 (second compound 0.316 µM): 46 nM
IC50 (second compound 1 µM): 6.65 nM
IC50 (second compound 3.16 µM): < 3.16 nM
IC50 (second compound 10 µM): < 3.16 nM
Compound: CCN1CCN(Cc2ccc(Nc3ncc(F)c(-c4cc(F)c5nc(C)n(C(C)C)c5c4)n3)nc2)CC1 + CNC(=O)c1ccc(Nc2nc(OC3CCCC3)c3c(-c4ccc5nc(C)oc5c4)c[nH]c3n2)c(OC)c1
viability, T/C (second compound 0.0316 µM, first compound 0.00316 µM): 96.1%
viability, T/C (second compound 0.0316 µM, first compound 0.01 µM): 94.5%
viability, T/C [1]: 90.7%
viability, T/C [2]: 73%
viability, T/C [3]: 61.5%
viability, T/C [4]: 46.9%
viability, T/C (second compound 0.1 µM, first compound 0.00316 µM): 102%
viability, T/C (second compound 0.1 µM, first compound 0.01 µM): 73.2%
viability, T/C [7]: 61.4%
viability, T/C [8]: 65.8%
viability, T/C [9]: 57.4%
viability, T/C [10]: 32.8%
viability, T/C (second compound 0.316 µM, first compound 0.00316 µM): 101%
viability, T/C (second compound 0.316 µM, first compound 0.01 µM): 71.3%
viability, T/C [13]: 39.5%
viability, T/C [14]: 60.1%
viability, T/C [15]: 38.9%
viability, T/C [16]: 22.3%
viability, T/C (second compound 1 µM, first compound 0.00316 µM): 59.2%
viability, T/C (second compound 1 µM, first compound 0.01 µM): 46.8%
viability, T/C [19]: 31.9%
viability, T/C [20]: 31%
viability, T/C [21]: 42.4%
viability, T/C [22]: 19.8%
viability, T/C (second compound 3.16 µM, first compound 0.00316 µM): 52.2%
viability, T/C (second compound 3.16 µM, first compound 0.01 µM): 32.5%
viability, T/C [25]: 39.8%
viability, T/C [26]: 34%
viability, T/C [27]: 33.7%
viability, T/C [28]: 25.1%
viability, T/C (second compound 10 µM, first compound 0.00316 µM): 40%
viability, T/C (second compound 10 µM, first compound 0.01 µM): 41.2%
viability, T/C [31]: 35.6%
viability, T/C [32]: 31.6%
viability, T/C [33]: 21.1%
viability, T/C [34]: 21.1%

IC50 (second compound 0.0316 µM): 969 nM
IC50 (second compound 0.1 µM): 892 nM
IC50 (second compound 0.316 µM): 557 nM
IC50 (second compound 1 µM): < 31.6 nM
IC50 (second compound 3.16 µM): < 31.6 nM
IC50 (second compound 10 µM): < 31.6 nM
Compound: O=c1[nH]cc(F)c(=O)[nH]1 + CNC(=O)c1ccc(Nc2nc(OC3CCCC3)c3c(-c4ccc5nc(C)oc5c4)c[nH]c3n2)c(OC)c1
viability, T/C [1]: 97.2%
viability, T/C [2]: 85.4%
viability, T/C [3]: 84.2%
viability, T/C [4]: 47.2%
viability, T/C [5]: 38.4%
viability, T/C [6]: 28%
viability, T/C [7]: 81.3%
viability, T/C [8]: 79.1%
viability, T/C [9]: 88%
viability, T/C [10]: 46.3%
viability, T/C [11]: 31%
viability, T/C [12]: 22%
viability, T/C [13]: 79.8%
viability, T/C [14]: 79.4%
viability, T/C [15]: 51.4%
viability, T/C [16]: 44.3%
viability, T/C [17]: 27.7%
viability, T/C [18]: 16.7%
viability, T/C [19]: 47.4%
viability, T/C [20]: 40.3%
viability, T/C [21]: 52.8%
viability, T/C [22]: 31.2%
viability, T/C [23]: 20.6%
viability, T/C [24]: 13.2%
viability, T/C [25]: 42.6%
viability, T/C [26]: 25%
viability, T/C [27]: 38.6%
viability, T/C [28]: 26.1%
viability, T/C [29]: 16.8%
viability, T/C [30]: 11.8%
viability, T/C [31]: 36.2%
viability, T/C [32]: 24.6%
viability, T/C [33]: 35.9%
viability, T/C [34]: 22.1%
viability, T/C [35]: 12.2%
viability, T/C [36]: 13.2%
